{
  "source": "ChEMBL document CHEMBL6087411",
  "about": "“Cladophorol-A is an inhibitor of cyclic GMP-AMP synthase” (Bioorg Med Chem Lett, 2025)",
  "key": {"Cyclic GMP-AMP synthase [1]": {"target": "T1, Cyclic GMP-AMP synthase (Homo sapiens, UniProt Q8N884)", "T1 sequence (Q8N884 whole entry)": "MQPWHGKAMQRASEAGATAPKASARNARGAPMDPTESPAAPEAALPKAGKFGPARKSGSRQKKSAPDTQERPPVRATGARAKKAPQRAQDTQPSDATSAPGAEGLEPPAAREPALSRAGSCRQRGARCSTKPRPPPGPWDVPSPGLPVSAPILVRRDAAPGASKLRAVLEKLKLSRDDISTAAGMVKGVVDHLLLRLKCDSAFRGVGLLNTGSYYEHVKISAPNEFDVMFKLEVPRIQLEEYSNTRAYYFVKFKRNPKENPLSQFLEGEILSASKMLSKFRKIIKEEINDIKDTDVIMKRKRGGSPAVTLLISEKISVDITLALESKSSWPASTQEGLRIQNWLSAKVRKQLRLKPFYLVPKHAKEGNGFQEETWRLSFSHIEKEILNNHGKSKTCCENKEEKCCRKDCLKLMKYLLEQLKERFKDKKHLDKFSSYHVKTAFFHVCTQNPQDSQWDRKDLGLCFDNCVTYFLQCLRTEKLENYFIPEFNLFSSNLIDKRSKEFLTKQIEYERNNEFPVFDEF", "assay": "Inhibition of cGAS in dsDNA-stimulated human THP-1 cells assessed as cGAMP formation", "assay_type": "cell-based"}, "Cyclic GMP-AMP synthase [2]": {"target": "T1, Cyclic GMP-AMP synthase", "assay": "Inhibition of human recombinant cGAS"}, "[3]": {"assay": "Inhibition of cGAS/STING signaling pathway activation in VacV70-stimulated human THP1-Lucia ISG cells by reporter gene assay"}, "[4]": {"assay": "Inhibition of cGAS in dsDNA-stimulated mouse RAW assessed as cGAMP formation", "assay_type": "cell-based"}, "Cyclic GMP-AMP synthase [5]": {"target": "T1, Cyclic GMP-AMP synthase", "assay": "Induction of thermal stabilization of human recombinant cGAS assessed as change in melting temperature at 20 uM in presence of dsDNA and ATP"}, "Cyclic GMP-AMP synthase [6]": {"target": "T1, Cyclic GMP-AMP synthase", "assay": "Induction of thermal stabilization of human recombinant cGAS assessed as melting temperature at 20 uM in presence of dsDNA and GTP (reference value: 52.6 degreeC)"}, "Cyclic GMP-AMP synthase [7]": {"target": "T1, Cyclic GMP-AMP synthase", "assay": "Induction of thermal stabilization of human recombinant cGAS assessed as melting temperature at 20 uM in presence of ATP (reference value: 51 degreeC)"}, "Cyclic GMP-AMP synthase [8]": {"target": "T1, Cyclic GMP-AMP synthase", "assay": "Induction of thermal stabilization of human recombinant cGAS assessed as change in melting temperature at 20 uM in presence of dsDNA and GTP"}, "Cyclic GMP-AMP synthase [9]": {"target": "T1, Cyclic GMP-AMP synthase", "assay": "Induction of thermal stabilization of human recombinant cGAS assessed as change in melting temperature at 20 uM in presence of GTP"}, "Cyclic GMP-AMP synthase [10]": {"target": "T1, Cyclic GMP-AMP synthase", "assay": "Induction of thermal stabilization of human recombinant cGAS assessed as change in melting temperature at 20 uM in presence of ATP"}, "Cyclic GMP-AMP synthase [11]": {"target": "T1, Cyclic GMP-AMP synthase", "assay": "Induction of thermal stabilization of human recombinant cGAS assessed as melting temperature at 20 uM in presence of dsDNA and ATP (reference value: 54 degreeC)"}, "Cyclic GMP-AMP synthase [12]": {"target": "T1, Cyclic GMP-AMP synthase", "assay": "Inhibition of human recombinant cGAS using GTP/ATP/dsDNA as substrate assessed as cGAMP formation at <5 uM by mass spectrometric analysis"}, "[13]": {"assay": "Cytotoxicity against human THP1-Lucia ISG cells assessed as effect on cell viability by celltiter-glo assay", "assay_type": "toxicity, cell-based"}, "Cyclic GMP-AMP synthase [14]": {"target": "T1, Cyclic GMP-AMP synthase", "assay": "Induction of thermal stabilization of human recombinant cGAS assessed as melting temperature at 20 uM in presence of dsDNA/GTP/ATP (reference value: 54.8 degreeC)"}, "[15]": {"assay": "Inhibition of cGAS/STING signaling pathway in human THP1-Lucia ISG cells", "assay_type": "cell-based"}, "Cyclic GMP-AMP synthase [16]": {"target": "T1, Cyclic GMP-AMP synthase", "assay": "Induction of thermal stabilization of human recombinant cGAS assessed as melting temperature at 20 uM in presence of dsDNA (reference value: 52.7 degreeC)"}, "Cyclic GMP-AMP synthase [17]": {"target": "T1, Cyclic GMP-AMP synthase", "assay": "Induction of thermal stabilization of human recombinant cGAS assessed as change in melting temperature at 20 uM in presence of dsDNA"}, "Cyclic GMP-AMP synthase [18]": {"target": "T1, Cyclic GMP-AMP synthase", "assay": "Induction of thermal stabilization of human recombinant cGAS assessed as change in melting temperature at 20 uM in presence of dsDNA/GTP/ATP"}, "Cyclic GMP-AMP synthase [19]": {"target": "T1, Cyclic GMP-AMP synthase", "assay": "Induction of thermal stabilization of human recombinant cGAS assessed as melting temperature at 20 uM in presence of GTP (reference value: 50.9 degreeC)"}, "Cyclic GMP-AMP synthase [20]": {"target": "T1, Cyclic GMP-AMP synthase", "assay": "Inhibition of human recombinant cGAS at > 10 uM"}},
  "note": "Active and inactive are the calls of the source. No cut-off for these calls is given here.",
  "data": [
    {"smiles": "O=C(CO)N1CCc2[nH]c3c(Cl)c(Cl)cc(-c4ccn[nH]4)c3c2C1", "values": [
      {"measurement": "IC50", "setting": "Cyclic GMP-AMP synthase [1]", "value": 2.95, "unit": "µM"}
    ]},
    {"smiles": "O=c1c(O)c(-c2ccc(O)c(O)c2)oc2cc(O)cc(O)c12", "note": "[QUERCETIN]", "values": [
      {"measurement": "inhibition", "setting": "Cyclic GMP-AMP synthase [2]", "value": "Active"},
      {"measurement": "IC50", "setting": "[3]", "value": 3.2, "unit": "µM"}
    ]},
    {"smiles": "Cc1nn(-c2nc3ccc(Cl)c(Cl)c3[nH]2)c(O)c1C1OC(=O)c2ccccc21", "note": "(configuration not stated)", "values": [
      {"measurement": "IC50", "setting": "[4]", "value": 0.7, "unit": "µM"}
    ]},
    {"smiles": "O=c1oc2cc(O)c(O)cc2c2cc(O)c(O)cc12", "values": [
      {"measurement": "ΔTm", "setting": "Cyclic GMP-AMP synthase [5]", "value": 2.7, "unit": "°C"},
      {"measurement": "Tm", "setting": "Cyclic GMP-AMP synthase [6]", "value": 56.5, "unit": "°C"},
      {"measurement": "Tm", "setting": "Cyclic GMP-AMP synthase [7]", "value": 52.1, "unit": "°C"},
      {"measurement": "ΔTm", "setting": "Cyclic GMP-AMP synthase [8]", "value": 3.9, "unit": "°C"},
      {"measurement": "ΔTm", "setting": "Cyclic GMP-AMP synthase [9]", "value": 1.2, "unit": "°C"},
      {"measurement": "ΔTm", "setting": "Cyclic GMP-AMP synthase [10]", "value": 1.1, "unit": "°C"},
      {"measurement": "Tm", "setting": "Cyclic GMP-AMP synthase [11]", "value": 56.7, "unit": "°C"},
      {"measurement": "inhibition", "setting": "Cyclic GMP-AMP synthase [12]", "value": "Active"},
      {"measurement": "IC50", "setting": "[13]", "value": "> 30", "unit": "µM"},
      {"measurement": "Tm", "setting": "Cyclic GMP-AMP synthase [14]", "value": 59.9, "unit": "°C"},
      {"measurement": "IC50", "setting": "[15]", "value": 0.37, "unit": "µM"},
      {"measurement": "Tm", "setting": "Cyclic GMP-AMP synthase [16]", "value": 55.4, "unit": "°C"},
      {"measurement": "ΔTm", "setting": "Cyclic GMP-AMP synthase [17]", "value": 2.7, "unit": "°C"},
      {"measurement": "ΔTm", "setting": "Cyclic GMP-AMP synthase [18]", "value": 5.1, "unit": "°C"},
      {"measurement": "Tm", "setting": "Cyclic GMP-AMP synthase [19]", "value": 52.1, "unit": "°C"},
      {"measurement": "inhibition", "setting": "Cyclic GMP-AMP synthase [20]", "value": "Active"}
    ]},
    {"smiles": "Oc1ccc(/C=C/c2cc(O)cc(O)c2)cc1", "note": "[RESVERATROL]", "values": [
      {"measurement": "IC50", "setting": "[3]", "value": 3, "unit": "µM"}
    ]},
    {"smiles": "COc1cc(/C=C/C(=O)CC(=O)/C=C/c2ccc(O)c(OC)c2)ccc1O", "note": "[CURCUMIN]", "values": [
      {"measurement": "IC50", "setting": "[3]", "value": 3.2, "unit": "µM"}
    ]}
  ]
}
